The results in this text go back to PubChem BioAssay (NCI).

Test systems include OVCAR-5 ovarian; MOLT-4 leukemia; ACHN renal; SNB-75 CNS; NCI/ADR-RES ovarian; OVCAR-3 ovarian; SF-295 CNS; SW-620 colon; RXF 393 renal; HOP-62 NSCLC.
Experiment in all cases: NCI tumour cell line growth inhibition, 48 h

Several values for one entry are separate records, joined by “and”; a condition that tells them apart may be missing. Equal entries are not always repeated.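 Assay format: 96-well plates, 48-hour exposure. GI50 is the concentration that inhibits growth by half. At the TGI there is no net growth.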 Bounds are passed on as bounds.

Consider `Cc1ccc(S(=O)(=O)OCC(=O)Nc2ccc(C(=O)O)c(O)c2)cc1`, for which the GI50 in the assay on OVCAR-5 ovarian is 46.5 µM; in the assay with MOLT-4 leukemia, 16.5 µM; in the assay on ACHN renal, 43.1 µM; with SNB-75 CNS it was 47.3 µM; with NCI/ADR-RES ovarian, 32.2 µM; in the assay on OVCAR-3 ovarian, 19.3 µM. Besides, the GI50 is 167 µM in the assay with SF-295 CNS, 43.7 µM with SW-620 colon, 16.5 µM with RXF 393 renal and 32.6 µM with HOP-62 NSCLC. Also, the TGI with OVCAR-5 ovarian was found to be 105 µM; in the assay with MOLT-4 leukemia, 87.9 µM; in the assay with ACHN renal, 159 µM; in the assay on SNB-75 CNS, 185 µM; in the assay with NCI/ADR-RES ovarian it was 162 µM; with OVCAR-3 ovarian it was 44.5 µM. Further, the TGI in the assay with SF-295 CNS stood at 322 µM; in the assay with SW-620 colon, 145 µM; in the assay on RXF 393 renal, 85 µM; in the assay with HOP-62 NSCLC it was 86 µM.
On to `CCSc1nc(NC(C)c2ccccc2)c2cnn(CO)c2n1` (stereo not given), for which the GI50 in the assay with OVCAR-5 ovarian is > 100 µM; in the assay with MOLT-4 leukemia, > 100 µM; in the assay on ACHN renal it was 76 µM; with SNB-75 CNS it was > 100 µM; in the assay on NCI/ADR-RES ovarian, 80.8 µM; in the assay on OVCAR-3 ovarian it was 64.7 µM. Besides, the GI50 in the assay with SF-295 CNS was 35.2 µM; in the assay with SW-620 colon, 67.9 µM; in the assay with RXF 393 renal it was 91.5 µM; with HOP-62 NSCLC it was > 100 µM. The TGI in the assay on OVCAR-5 ovarian, in the assay with MOLT-4 leukemia, in the assay with ACHN renal, in the assay on SNB-75 CNS, in the assay with NCI/ADR-RES ovarian and in the assay with OVCAR-3 ovarian was > 100 µM throughout. Moreover, the TGI in the assay with SF-295 CNS, with SW-620 colon, in the assay on RXF 393 renal and in the assay with HOP-62 NSCLC was > 100 µM throughout.
Consider `O=C(Nc1ccn(C2CC(I)C(COC(c3ccccc3)(c3ccccc3)c3ccccc3)O2)c(=O)n1)c1ccccc1` (stereo not given), for which the TGI in the assay with OVCAR-5 ovarian was > 21.5 µM; with MOLT-4 leukemia it was 12.1 µM; in the assay on ACHN renal, 21.5 µM; in the assay with SNB-75 CNS it was 9.61 µM; in the assay on NCI/ADR-RES ovarian it was 20.2 µM; in the assay on OVCAR-3 ovarian it was 13 µM. Also, the TGI in the assay with SF-295 CNS was determined as 21.5 µM; in the assay on SW-620 colon, 21.5 µM; with RXF 393 renal, 13.2 µM; with HOP-62 NSCLC it was 21.2 µM.
On to `CCNC(=O)Oc1ccc(/C(=C(\C)c2ccc(Cl)cc2)c2ccc(OCCN(CC)CC)cc2)cc1`, for which the GI50 in the assay with OVCAR-5 ovarian is 10.3 µM; with MOLT-4 leukemia it was 3.07 µM; in the assay with ACHN renal it was 3.74 µM; with SNB-75 CNS it was 2.45 µM; in the assay on NCI/ADR-RES ovarian, 6.8 µM; with OVCAR-3 ovarian, 4.56 µM. In addition, the GI50 in the assay with SF-295 CNS was 1.85 µM; with SW-620 colon it was 2.02 µM; with RXF 393 renal, 2.35 µM; in the assay on HOP-62 NSCLC it was 4.35 µM. Besides, the TGI amounted to 23.1 µM in the assay on OVCAR-5 ovarian; 11 µM in the assay with MOLT-4 leukemia; 14.6 µM in the assay with ACHN renal; 18.4 µM in the assay with SNB-75 CNS; 22.7 µM with NCI/ADR-RES ovarian; 16.7 µM in the assay on OVCAR-3 ovarian. Further, the TGI with SF-295 CNS was 4.12 µM; in the assay on SW-620 colon it was 4.23 µM; with RXF 393 renal, 9.84 µM; in the assay with HOP-62 NSCLC, 16.4 µM.
Turning to `C=C1C[C@@H](O)[C@@H](Br)C(C)(C)[C@]12CCC(C)(Br)C(Cl)C2` (stereo not given in full), the GI50 in the assay on OVCAR-5 ovarian was 1.23 µM; in the assay on MOLT-4 leukemia it was 14.2 µM; in the assay on ACHN renal, 18.5 µM; with SNB-75 CNS, 18.5 µM; with NCI/ADR-RES ovarian it was 22.5 µM; in the assay on OVCAR-3 ovarian, 17.4 µM. In addition, the GI50 in the assay on SF-295 CNS is 17.9 µM; in the assay on SW-620 colon it was 15.2 µM; in the assay on RXF 393 renal, 18.5 µM; in the assay with HOP-62 NSCLC it was 15.4 µM. Also, the TGI is 26.6 µM and 8.52 µM with OVCAR-5 ovarian; > 50 µM and 34.5 µM with MOLT-4 leukemia; > 50 µM and 34.1 µM in the assay on ACHN renal; > 50 µM and 34.6 µM in the assay with SNB-75 CNS; > 50 µM and 56 µM in the assay with NCI/ADR-RES ovarian; > 50 µM and 33.7 µM with OVCAR-3 ovarian. Besides, the TGI with SF-295 CNS is > 50 µM and 34.9 µM; with SW-620 colon it was > 50 µM and 33 µM; with RXF 393 renal, > 50 µM and 37.2 µM; in the assay with HOP-62 NSCLC, > 50 µM and 35.9 µM.
